Here are results for 32 compounds from the METLIN SMRT retention time set (Domingo-Almenara et al. 2019).

This data set can be described thus: gradient 5% acetonitrile 3 min, to 50% in 2 min, to 85% in 15 min, held 3 min, 100 µL/min. Conditions: column: Zorbax Extend-C18 2.1 x 50 mm; eluents: water / acetonitrile, 0.1% formic acid. In a few lines: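 Pure standards were run in mixtures of ~100 molecules by HPLC coupled to a quadrupole time-of-flight mass spectrometer. The column was a Zorbax Extend-C18 (2.1 × 50 mm, 1.8 μm) at 100 μL/min, with water and acetonitrile each containing 0.1% formic acid, in positive and negative ionization mode. Dead and dwell volumes were 40 μL and 900 μL. Retention time was taken from computationally picked adduct peaks, each manually inspected, with data collected over 3 months.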
On to `COc1ccc(-c2noc(-c3cccn(CC(=O)Nc4ccc(C#N)cc4)c3=O)n2)cc1OC`, for which the RP-LC retention time turned out to be 779 s.

Compound `O=C(c1cccc(Nc2c(-c3ccc(Cl)cc3)nc3cnccn23)c1)N1CCOCC1` gave an RP-LC retention time of 719 s.

In turn, `COc1ccc(CNC(=O)c2cc3sccc3n2Cc2ccc(F)cc2)cc1` showed an RP-LC retention time of 1080 s.

`COC(=O)c1ccc(NC(=O)N2CCCC2c2ccc(OC)cc2)cc1` (configuration not stated) had an RP-LC retention time of 906 s.

`COC[C@@H]1CN(Cc2cccc(OC)n2)C[C@H]1c1ccncc1` displayed an RP-LC retention time of 536 s.

As for `Cc1ccc(NS(=O)(=O)c2cc3c(s2)CCN(C(=O)C2CC2)C3)cc1F`, the RP-LC retention time amounted to 880 s.

With `COc1ccc(NC(=O)c2cnc3c(c2)c(=O)n(C)c(=O)n3-c2ccccc2)cc1OC`, the RP-LC retention time stood at 771 s.

In turn, `Cc1ccc(NC(=O)C(C)C2CCN(C(=O)Nc3ccc(F)cc3)CC2)cc1C` (configuration not stated) yielded an RP-LC retention time of 928 s.

In turn, `O=C(C1CC(=O)N(c2ccccc2)C1)N1CCC2(CC1)OCCS2` (configuration not stated) registered an RP-LC retention time of 682 s.

The compound `Cc1ccc(CCNC(=O)C2CCN(S(=O)(=O)c3ccc4c(c3)CCCC(=O)N4)CC2)cc1` yielded an RP-LC retention time of 781 s.

`CC(C)(Oc1ccc(Cl)cc1)C(=O)NC1CCCCC1N1C(=O)CSC1=O` (configuration not stated) yielded an RP-LC retention time of 972 s.

In turn, `O=C(NCCN1CCCCC1)C1CCc2sc(C(=O)N3CCCC3)cc2C1` (configuration not stated) registered an RP-LC retention time of 534 s.

`Cc1ccc(CNC(=O)Cn2cnc3nc4c(cc3c2=O)CCCC4)cc1` came in with an RP-LC retention time of 728 s.

Compound `Cc1[nH]c(C)c(S(=O)(=O)N2CCC(C(=O)N(C)C3CCCCC3)CC2)c1C(=O)N1CCCCC1` had an RP-LC retention time of 762 s.

On to `O=C(NCc1ccco1)C1CCN(Cc2cc3ccccc3n2Cc2ccccc2)CC1`, for which the RP-LC retention time is 747 s.

For the compound `COC(=O)C1=CN(c2cccc(Br)c2)c2ccc(F)cc2S1(=O)=O`, the RP-LC retention time was found to be 913 s.

In turn, `CCc1cc(N2CCN(C(=O)c3ccccc3)CC2)nc2nnc(C)n12` displayed an RP-LC retention time of 604 s.

The compound `O=C(NCCc1cccs1)c1nnc(-c2ccc(S(=O)(=O)N3CCCCC3)cc2)o1` yielded an RP-LC retention time of 977 s.

Take `CC(C)COC(=O)Nc1nc(CC(=O)Nc2ccccc2C(N)=O)cs1`: the RP-LC retention time came to 703 s.

As to `COc1cccc(Nc2c(-c3ccc(Br)cc3)nc3cnccn23)c1`, the RP-LC retention time was determined as 972 s.

For `O=C(CSc1ccc(N2CCOCC2)nn1)Nc1ccc(F)cc1F`, the RP-LC retention time was 669 s.

In turn, `O=C(Cn1ccc2ccn(Cc3ccccc3F)c2c1=O)NCc1ccc2c(c1)OCO2` displayed an RP-LC retention time of 894 s.

`COC(=O)C1=CN(CC(=O)N2CCN(c3ccc(F)cc3)CC2)S(=O)(=O)N=C1C`: the RP-LC retention time amounted to 878 s.

`CCNC(=O)c1ccc(N2CCc3ccccc32)s1` had an RP-LC retention time of 824 s.

Consider `O=C1C(N2CCN(S(=O)(=O)c3cc(F)cc(F)c3)CC2)CCN1Cc1ccccn1` (configuration not stated), for which the RP-LC retention time amounted to 601 s.

Regarding `COC(=O)c1ccccc1NC(=O)NCc1nc(-c2ccccc2)oc1C`, the RP-LC retention time was determined as 964 s.

Regarding `COc1cc(OC)c(NC(=O)N(C)CCc2noc(-c3ccccc3)n2)cc1Cl`, the RP-LC retention time is 946 s.

`O=C(NCc1ccc(F)cc1)C1CCCN(c2ncnc3c2oc2ccccc23)C1` (configuration not stated): the RP-LC retention time was determined as 746 s.

Take `CNC(=O)[C@@H]1CN(C(=O)c2cnccn2)C[C@H]1c1n[nH]c(C)n1`: the RP-LC retention time was determined as 539 s.

For the compound `Cc1ccc(-n2nc(N3CCCC(C(=O)NCc4ccc(N(C)C)cc4)C3)ccc2=O)cc1Cl` (configuration not stated), the RP-LC retention time is 692 s.

Consider `Cc1cc(C(=O)NCC(c2cn(C)c3ccccc23)N(C)C)no1` (configuration not stated), for which the RP-LC retention time worked out at 557 s.

In turn, `CCC(CC)C(=O)N1CCC(N2CCN(Cc3ccc(C)cc3)C(=O)C2=O)CC1` displayed an RP-LC retention time of 756 s.
